# Measured values from US20260092071A1, “COMPOUNDS AND COMPOSITIONS AS SMARCA2/4 DEGRADERS AND USES THEREOF” (REGENTS OF THE UNIVERSITY OF MICHIGAN, priority 2022, published 2026).
# Tests used:
# [1] = molecular target: SMARCA4 (Homo sapiens, UniProt P51532); assay: HiBit assay in engineered HT1080 CRISPR knock-in cell, 6 hrs (B series), SMARCA4; format: cell-based; settings: 6 hrs incubation; for DC50: HT1080 CRISPR knock-in cells, read-out: SMARC A4 HT1080 HiBit DC50; for Dmax: HT-1080, HT1080 CRISPR knock-in cells, read-out: SMARC A4 HT1080 HiBit Dmax(%)
# Procedure, shortened: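 HT1080 CRISPR knock-in cells carrying the HiBiT tag were seeded onto compounds (final DMSO 0.1%) and incubated 6 hrs at 37° C, 5% CO2. Remaining tagged protein was detected by lytic HiBiT luminescence after adding LgBiT protein and substrate, with LgBiT-free wells serving as negative control.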
# [2] = molecular target: SMARCA2 (Homo sapiens, UniProt P51531); assay: HiBit assay in engineered HT1080 CRISPR knock-in cell, 6 hrs (B series), SMARCA2; format: cell-based; settings: 6 hrs incubation; for DC50: read-out: SMARC A2 HT1080 HiBit DC50; for Dmax: HT-1080, HT1080 CRISPR knock-in cells, read-out: SMARC A2 HT1080 HiBit Dmax (%)
# Procedure, shortened: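 HT1080 CRISPR knock-in cells carrying HiBiT-tagged SMARCA2 seeded onto compound (0.1% DMSO) at 2000 cells/well. Incubated 6 h at 37 °C, 5% CO2, then lysed with Nano-Glo HiBiT lytic reagent containing LgBiT, and luminescence read.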
# SMARCA4, sequence (P51532 whole entry): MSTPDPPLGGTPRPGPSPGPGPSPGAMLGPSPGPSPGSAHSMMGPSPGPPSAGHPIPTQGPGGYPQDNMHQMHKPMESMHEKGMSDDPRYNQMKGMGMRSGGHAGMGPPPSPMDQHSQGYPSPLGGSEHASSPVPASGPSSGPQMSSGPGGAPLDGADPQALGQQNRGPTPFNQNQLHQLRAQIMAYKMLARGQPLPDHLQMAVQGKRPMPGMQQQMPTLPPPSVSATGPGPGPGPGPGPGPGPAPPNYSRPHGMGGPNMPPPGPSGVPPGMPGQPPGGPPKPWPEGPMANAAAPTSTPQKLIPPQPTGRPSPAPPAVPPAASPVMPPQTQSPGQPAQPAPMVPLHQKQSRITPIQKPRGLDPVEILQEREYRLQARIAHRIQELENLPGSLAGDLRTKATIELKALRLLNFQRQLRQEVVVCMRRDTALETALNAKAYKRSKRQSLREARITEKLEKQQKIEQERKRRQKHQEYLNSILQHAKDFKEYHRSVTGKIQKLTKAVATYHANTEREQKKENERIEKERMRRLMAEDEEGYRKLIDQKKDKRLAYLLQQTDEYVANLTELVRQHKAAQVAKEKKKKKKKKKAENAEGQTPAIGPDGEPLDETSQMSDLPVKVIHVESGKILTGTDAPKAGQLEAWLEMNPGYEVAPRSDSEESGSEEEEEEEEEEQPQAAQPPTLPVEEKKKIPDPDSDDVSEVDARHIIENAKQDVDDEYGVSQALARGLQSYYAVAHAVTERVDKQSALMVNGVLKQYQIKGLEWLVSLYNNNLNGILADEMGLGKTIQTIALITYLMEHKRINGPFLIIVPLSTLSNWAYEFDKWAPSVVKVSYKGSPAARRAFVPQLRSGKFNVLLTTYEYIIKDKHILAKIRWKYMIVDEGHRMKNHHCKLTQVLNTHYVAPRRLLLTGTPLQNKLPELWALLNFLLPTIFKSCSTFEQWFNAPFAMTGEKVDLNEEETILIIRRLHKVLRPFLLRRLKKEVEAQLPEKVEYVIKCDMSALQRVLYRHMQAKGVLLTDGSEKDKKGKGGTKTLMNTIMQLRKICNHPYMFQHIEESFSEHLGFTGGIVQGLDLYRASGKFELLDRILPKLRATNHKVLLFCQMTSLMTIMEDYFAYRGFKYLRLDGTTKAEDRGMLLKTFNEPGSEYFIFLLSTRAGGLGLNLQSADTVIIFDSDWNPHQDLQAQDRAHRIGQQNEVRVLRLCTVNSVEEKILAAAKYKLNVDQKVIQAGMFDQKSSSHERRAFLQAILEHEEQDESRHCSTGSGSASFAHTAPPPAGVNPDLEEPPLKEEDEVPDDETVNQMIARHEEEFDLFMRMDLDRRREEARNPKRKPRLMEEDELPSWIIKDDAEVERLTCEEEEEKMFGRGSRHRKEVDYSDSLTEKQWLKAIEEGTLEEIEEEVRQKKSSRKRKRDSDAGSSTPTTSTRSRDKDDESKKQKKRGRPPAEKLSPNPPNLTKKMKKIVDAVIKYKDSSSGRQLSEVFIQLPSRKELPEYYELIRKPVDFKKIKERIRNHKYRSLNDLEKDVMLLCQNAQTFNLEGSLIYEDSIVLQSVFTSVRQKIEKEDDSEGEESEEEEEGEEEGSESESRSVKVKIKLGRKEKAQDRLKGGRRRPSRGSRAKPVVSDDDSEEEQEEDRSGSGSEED
# SMARCA2, sequence (P51531 whole entry): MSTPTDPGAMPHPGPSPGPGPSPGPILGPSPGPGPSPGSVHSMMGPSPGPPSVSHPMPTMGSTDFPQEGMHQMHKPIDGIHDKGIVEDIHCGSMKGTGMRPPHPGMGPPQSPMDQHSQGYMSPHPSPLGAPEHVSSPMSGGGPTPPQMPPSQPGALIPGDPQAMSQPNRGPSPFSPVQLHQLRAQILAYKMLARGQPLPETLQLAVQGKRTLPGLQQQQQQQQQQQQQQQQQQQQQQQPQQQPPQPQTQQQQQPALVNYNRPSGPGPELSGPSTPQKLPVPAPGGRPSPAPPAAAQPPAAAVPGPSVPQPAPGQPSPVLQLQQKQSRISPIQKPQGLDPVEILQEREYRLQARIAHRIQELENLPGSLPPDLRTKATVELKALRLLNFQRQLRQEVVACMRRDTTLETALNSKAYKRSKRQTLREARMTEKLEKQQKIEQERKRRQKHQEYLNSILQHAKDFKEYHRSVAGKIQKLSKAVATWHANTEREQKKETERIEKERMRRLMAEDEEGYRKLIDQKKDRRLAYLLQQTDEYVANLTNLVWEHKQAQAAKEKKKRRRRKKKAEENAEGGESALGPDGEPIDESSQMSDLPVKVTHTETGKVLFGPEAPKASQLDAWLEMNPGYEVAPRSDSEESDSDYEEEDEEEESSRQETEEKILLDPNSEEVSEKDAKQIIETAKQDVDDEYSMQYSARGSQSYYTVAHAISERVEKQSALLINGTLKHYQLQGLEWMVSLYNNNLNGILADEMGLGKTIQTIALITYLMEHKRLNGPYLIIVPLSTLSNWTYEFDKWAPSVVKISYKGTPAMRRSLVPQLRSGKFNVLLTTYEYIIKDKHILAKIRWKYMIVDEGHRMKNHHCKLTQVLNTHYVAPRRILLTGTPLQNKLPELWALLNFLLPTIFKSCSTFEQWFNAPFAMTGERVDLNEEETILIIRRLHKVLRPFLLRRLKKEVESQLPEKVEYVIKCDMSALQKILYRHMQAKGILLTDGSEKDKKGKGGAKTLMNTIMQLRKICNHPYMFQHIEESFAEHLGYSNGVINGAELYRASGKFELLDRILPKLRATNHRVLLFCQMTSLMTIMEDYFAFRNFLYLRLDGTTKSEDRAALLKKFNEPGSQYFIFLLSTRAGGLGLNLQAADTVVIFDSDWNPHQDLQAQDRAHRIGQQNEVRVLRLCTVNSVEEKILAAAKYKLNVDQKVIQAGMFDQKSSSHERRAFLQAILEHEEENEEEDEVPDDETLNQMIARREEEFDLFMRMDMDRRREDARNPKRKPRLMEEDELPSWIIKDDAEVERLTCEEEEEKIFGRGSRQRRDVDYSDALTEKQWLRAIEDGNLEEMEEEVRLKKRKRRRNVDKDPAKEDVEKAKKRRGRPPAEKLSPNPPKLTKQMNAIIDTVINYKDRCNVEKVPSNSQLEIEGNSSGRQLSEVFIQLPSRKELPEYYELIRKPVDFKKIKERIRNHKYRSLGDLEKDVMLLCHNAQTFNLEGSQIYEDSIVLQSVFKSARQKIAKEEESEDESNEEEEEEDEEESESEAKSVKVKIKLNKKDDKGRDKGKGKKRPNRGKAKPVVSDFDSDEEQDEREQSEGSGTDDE
DC50 [1],Dmax [1],DC50 ([2]; HT1080 CRISPR knock-in cells),Dmax [2],SMARC A2 HT1080 HiBit Dmax (%) ([2]; HT1080 CRISPR knock-in cells),SMILES
< 100 nM,50 to 69%,100 to 500 nM,50 to 69%,,"Cc1cc(C(C(=O)N2C[C@H](O)C[C@H]2C(=O)N[C@@H](C)c2ccc(-c3scnc3C#CCN3CCC(c4ccc5c(c4)C(C)(C)c4nc(=O)c6c(Cl)cccc6n4-5)CC3)cc2)C(C)C)on1 (stereo partly drawn) [Compound B144, (2S,4R)—N—((S)-1-(4-(4-(3-(4-(4-chloro-7,7-dimethyl-5-oxo-5,7-dihydroindolo[1,2-a]quinazolin-9-yl)piperidin-1-yl)prop-1-yn-1-yl)thiazol-5-yl)phenyl)ethyl)-4-hydroxy-1-(3-methyl-2-(3-methylisoxazol-5-yl)butanoyl)pyrrolidine-2-carboxamide]"
100 to 500 nM,50 to 69%,100 to 500 nM,70 to 90%,,"Cc1cc(C(C(=O)N2C[C@H](O)C[C@H]2C(=O)N[C@@H](C)c2ccc(-c3scnc3C#CCOCCCN3CCC(c4cccc5c4C(C)(C)c4nc(=O)c6c(Cl)cccc6n4-5)CC3)cc2)C(C)C)on1 (stereo partly drawn) [Compound B145, (2S,4R)-N-((S)-1-(4-(4-(3-(3-(4-(4-chloro-7,7-dimethyl-5-oxo-5,7-dihydroindolo[1,2-a]quinazolin-8-yl)piperidin-1-yl)propoxy)prop-1-yn-1-yl)thiazol-5-yl)phenyl)ethyl)-4-hydroxy-1-(3-methyl-2-(3-methylisoxazol-5-yl)butanoyl)pyrrolidine-2-carboxamide]"
100 to 500 nM,50 to 69%,< 100 nM,> 90%,,"Cc1ncsc1-c1ccc2c(c1)CCC[C@@H]2NC(=O)[C@@H]1C[C@@H](O)CN1C(=O)[C@@H](n1cc([C@H]2CC[C@H](CN3CCC(c4ccc5c(c4)-n4c(nc(=O)c6c(Cl)cccc64)C5(C)C)CC3)CC2)nn1)C(C)(C)C [Compound B146, (2S,4R)-1-((S)-2-(4-((1r,4S)-4-((4-(4-chloro-7,7-dimethyl-5-oxo-5,7-dihydroindolo[1,2-a]quinazolin-10-yl)piperidin-1-yl)methyl)cyclohexyl)-1H-1,2,3-triazol-1-yl)-3,3-dimethylbutanoyl)-4-hydroxy-N-((S)-6-(4-methylthiazol-5-yl)-1,2,3,4-tetrahydronaphthalen-1-yl)pyrrolidine-2-carboxamide]"
501 to 1000 nM,50 to 69%,100 to 500 nM,50 to 69%,,"Cc1cc([C@H](C(=O)N2C[C@H](O)C[C@H]2C(=O)N[C@@H](C)c2ccc(-c3scnc3C(=O)NCCCCOCCN3CCC(c4ccc5c(c4)-n4c(nc(=O)c6c(Cl)cccc64)C5(C)C)CC3)cc2)C(C)C)on1 [Compound B147, N-(4-(2-(4-(4-chloro-7,7-dimethyl-5-oxo-5,7-dihydroindolo[1,2-a]quinazolin-10-yl)piperidin-1-yl)ethoxy)butyl)-5-(4-((S)-1-((2S,4R)-4-hydroxy-1-((R)-3-methyl-2-(3-methylisoxazol-5-yl)butanoyl)pyrrolidine-2-carboxamido)ethyl)phenyl)thiazole-4-carboxamide]"
< 100 nM,< 50%,100 to 500 nM,< 50%,,"Cc1ncsc1-c1ccc2c(NC(=O)[C@@H]3C[C@@H](O)CN3C(=O)[C@@H](n3cc([C@H]4CC[C@H](CN5CCC(c6ccc7c(c6)-n6c(nc(=O)c8c(Cl)cccc86)C7(C)C)CC5)CC4)nn3)C(C)(C)C)n[nH]c2c1 [Compound B148, (2S,4R)-1-((S)-2-(4-((1r,4S)-4-((4-(4-chloro-7,7-dimethyl-5-oxo-5,7-dihydroindolo[1,2-a]quinazolin-10-yl)piperidin-1-yl)methyl)cyclohexyl)-1H-1,2,3-triazol-1-yl)-3,3-dimethylbutanoyl)-4-hydroxy-N-(6-(4-methylthiazol-5-yl)-1H-indazol-3-yl)pyrrolidine-2-carboxamide]"
< 100 nM,70 to 90%,< 100 nM,> 90%,,"Cc1cc(-c2scnc2C)ccc1[C@H](C)NC(=O)[C@@H]1C[C@@H](O)CN1C(=O)[C@@H](n1cc([C@H]2CC[C@H](CN3CCC(c4ccc5c(c4)-n4c(nc(=O)c6c(Cl)cccc64)C5(C)C)CC3)CC2)nn1)C(C)(C)C [Compound B149, (2S,4R)-1-((S)-2-(4-((1r,4S)-4-((4-(4-chloro-7,7-dimethyl-5-oxo-5,7-dihydroindolo[1,2-a]quinazolin-10-yl)piperidin-1-yl)methyl)cyclohexyl)-1H-1,2,3-triazol-1-yl)-3,3-dimethylbutanoyl)-4-hydroxy-N-((S)-1-(2-methyl-4-(4-methylthiazol-5-yl)phenyl)ethyl)pyrrolidine-2-carboxamide]"
100 to 500 nM,< 50%,< 100 nM,50 to 69%,,"Cc1cc(C(C(=O)N2C[C@H](O)C[C@H]2C(=O)N[C@@H](C)c2ccc(-c3scnc3C#CCN3CCC(c4cccc5c4C(C)(C)c4nc(=O)c6c(Cl)cccc6n4-5)CC3)cc2)C(C)C)on1 (stereo partly drawn) [Compound B150, (2S,4R)-N-((S)-1-(4-(4-(3-(4-(4-chloro-7,7-dimethyl-5-oxo-5,7-dihydroindolo[1,2-a]quinazolin-8-yl)piperidin-1-yl)prop-1-yn-1-yl)thiazol-5-yl)phenyl)ethyl)-4-hydroxy-1-(3-methyl-2-(3-methylisoxazol-5-yl)butanoyl)pyrrolidine-2-carboxamide]"
100 to 500 nM,50 to 69%,< 100 nM,> 90%,,"Cc1ncsc1-c1ccc2c(c1)CCC[C@H]2NC(=O)[C@@H]1C[C@@H](O)CN1C(=O)[C@@H](n1cc([C@H]2CC[C@H](CN3CCC(c4ccc5c(c4)-n4c(nc(=O)c6c(Cl)cccc64)C5(C)C)CC3)CC2)nn1)C(C)(C)C [Compound B151, (2S,4R)-1-((S)-2-(4-((1r,4S)-4-((4-(4-chloro-7,7-dimethyl-5-oxo-5,7-dihydroindolo[1,2-a]quinazolin-10-yl)piperidin-1-yl)methyl)cyclohexyl)-1H-1,2,3-triazol-1-yl)-3,3-dimethylbutanoyl)-4-hydroxy-N-((R)-6-(4-methylthiazol-5-yl)-1,2,3,4-tetrahydronaphthalen-1-yl)pyrrolidine-2-carboxamide]"
< 100 nM,70 to 90%,< 100 nM,,A (A (>90% degradation)),"Cc1cc(C(C(=O)N2C[C@H](O)C[C@H]2C(=O)N[C@@H](CCN2CCC(c3cccc4c3C(C)(C)c3nc(=O)c5c(Cl)cccc5n3-4)CC2)c2ccc(-c3scnc3C)cc2)C(C)C)on1 (stereo partly drawn) [Compound B152, (2S,4R)—N—((S)-3-(4-(4-chloro-7,7-dimethyl-5-oxo-5,7-dihydroindolo[1,2-a]quinazolin-8-yl)piperidin-1-yl)-1-(4-(4-methylthiazol-5-yl)phenyl)propyl)-4-hydroxy-1-(3-methyl-2-(3-methylisoxazol-5-yl)butanoyl)pyrrolidine-2-carboxamide]"
< 100 nM,70 to 90%,< 100 nM,70 to 90%,,"Cc1cc(C(C(=O)N2C[C@H](O)C[C@H]2C(=O)N[C@@H](CN2CCC(c3cccc4c3C(C)(C)c3nc(=O)c5c(Cl)cccc5n3-4)CC2)c2ccc(-c3scnc3C)cc2)C(C)C)on1 (stereo partly drawn) [Compound B153, (2S,4R)-N-((R)-2-(4-(4-chloro-7,7-dimethyl-5-oxo-5,7-dihydroindolo[1,2-a]quinazolin-8-yl)piperidin-1-yl)-1-(4-(4-methylthiazol-5-yl)phenyl)ethyl)-4-hydroxy-1-(3-methyl-2-(3-methylisoxazol-5-yl)butanoyl)pyrrolidine-2-carboxamide]"
